Experimental data taken from patent publication US20240390298A1, “CYCLOHEXYL BETA-HYDROXY ALKYL AMINES AND MEDICAL USES THEREOF” (ATROGI AB, priority 2021, published 2024).
Where a name gives a salt, the structure may show the parent alone.

Legend:
[1] = system: L6-myotubes; assay: Glucose uptake in differentiated L6-myotubes (3H-2-deoxyglucose), compared to isoproterenol; assay type: cell-based; conditions: agonist 1×10^−5 M, 50 nM 3H-2-deoxyglucose
In short: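 Serum-starved differentiated L6 myotubes stimulated with agonist at 1×10^−5 M for 1 h 40 min, re-dosed in glucose-free medium for 20 min, then given 50 nM ^3H-2-deoxyglucose for 10 min. Uptake read by β-counting of NaOH lysates; activity expressed relative to isoproterenol.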

[2] = system: L6-myotubes; assay: Measurement of intracellular cAMP levels in differentiated L6 cells (alpha screen cAMP kit), compared to isoproterenol; assay type: cell-based; conditions: agonist 1×10^−5 M, 15 min; for Emax at 10 µM: Rattus norvegicus, L6, 0.25 h, read-out: Biological example 2: intracellular cAMP levels, activity compared to that of isoproterenol
In short: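 L6 myoblasts were differentiated into myotubes over 7 days in 2% FBS, then serum-starved overnight. Agonist at 1×10^−5 M final was applied for 15 min in HBSS with 1% BSA, 5 mM HEPES and 1 mM IBMX, pH 7.4. After ethanol extraction and lysis, cAMP was quantified by AlphaScreen, with activity expressed relative to isoproterenol.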

CCCS(=O)(=O)N[C@H]1CC[C@@H](CC(C)(C)NC[C@H](O)c2cccc(F)c2)CC1 [Example 171, N-((1S,4s)-4-(2-(((R)-2-(3-Fluorophenyl)-2-hydroxyethyl)amino)-2-methylpropyl)cyclohexyl)propane-1-sulfonamide hydrochloride]
Biological example 1: glucose uptake, activity compared to that of isoproterenol [1]: + + + | Emax at 10 µM [2]: < 25%

CC(C)(C[C@H]1CC[C@@H](NS(=O)(=O)C(F)(F)F)CC1)NC[C@H](O)c1cccc(F)c1 [Example 172, 1,1,1-Trifluoro-N-((1S,4s)-4-(2-(((R)-2-(3-fluorophenyl)-2-hydroxyethyl)-amino)-2-methylpropyl)cyclohexyl)methanesulfonamide hydrochloride]
Biological example 1: glucose uptake, activity compared to that of isoproterenol [1]: + + | Emax at 10 µM [2]: < 25%

CC(C)(C[C@H]1CC[C@@H](NC(=O)OC(C)(C)C)CC1)NC[C@H](O)c1cncc(F)c1 [Example 174, tert-Butyl ((1S,4s)-4-(2-(((R)-2-(5-fluoropyridin-3-yl)-2-hydroxyethyl)-amino)-2-methylpropyl)cyclohexyl)carbamate]
Biological example 1: glucose uptake, activity compared to that of isoproterenol [1]: + + + | Emax at 10 µM [2]: < 25%

CC(C)(C[C@H]1CC[C@@H](N)CC1)NC[C@H](O)c1cncc(F)c1 [Example 175, (R)-2-((1-((1s,4S)-4-Aminocyclohexyl)-2-methylpropan-2-yl)amino)-1-(5-fluoropyridin-3-yl)ethan-1-ol]
Biological example 1: glucose uptake, activity compared to that of isoproterenol [1]: + + | Emax at 10 µM [2]: < 25%

CC(=O)N[C@H]1CC[C@@H](CC(C)(C)NC[C@H](O)c2cncc(F)c2)CC1 [Example 176, N-((1S,4s)-4-(2-(((R)-2-(5-Fluoropyridin-3-yl)-2-hydroxyethyl)amino)-2-methylpropyl)cyclohexyl)acetamide]
Biological example 1: glucose uptake, activity compared to that of isoproterenol [1]: + + + | Emax at 10 µM [2]: < 25%

CC(C)(C[C@H]1CC[C@@H](NS(C)(=O)=O)CC1)NC[C@H](O)c1cncc(F)c1 [Example 177, N-((1S,4s)-4-(2-(((R)-2-(5-Fluoropyridin-3-yl)-2-hydroxyethyl)amino)-2-methylpropyl)cyclohexyl)methanesulfonamide]
Biological example 1: glucose uptake, activity compared to that of isoproterenol [1]: + + + | Emax at 10 µM [2]: < 25%

CC(=O)N(C)[C@H]1CC[C@H](CC(C)(C)NC[C@H](O)c2cccc(F)c2)CC1.Cl [Example 178, N-((1R,4r)-4-(2-(((R)-2-(3-Fluorophenyl)-2-hydroxyethyl)amino)-2-methylpropyl)cyclohexyl)-N-methylacetamide hydrochloride]
Biological example 1: glucose uptake, activity compared to that of isoproterenol [1]: + + + | Emax at 10 µM [2]: < 25%

CN([C@H]1CC[C@H](CC(C)(C)NC[C@H](O)c2cccc(F)c2)CC1)S(C)(=O)=O.Cl [Example 179, N-((1R,4r)-4-(2-(((R)-2-(3-Fluorophenyl)-2-hydroxyethyl)amino)-2-methylpropyl)cyclohexyl)-N-methylmethanesulfonamide hydrochloride]
Biological example 1: glucose uptake, activity compared to that of isoproterenol [1]: + + | Emax at 10 µM [2]: < 25%

CC(=O)N(C)[C@H]1CC[C@@H](CC(C)(C)NC[C@H](O)c2cccc(F)c2)CC1.Cl [Example 180, N-((1S,4s)-4-(2-(((R)-2-(3-Fluorophenyl)-2-hydroxyethyl)amino)-2-methylpropyl)cyclohexyl)-N-methylacetamide hydrochloride]
Biological example 1: glucose uptake, activity compared to that of isoproterenol [1]: + + | Emax at 10 µM [2]: < 25%

CN([C@H]1CC[C@@H](CC(C)(C)NC[C@H](O)c2cccc(F)c2)CC1)S(C)(=O)=O.Cl [Example 181, N-((1S,4s)-4-(2-((®-2-(3-Fluorophenyl)-2-hydroxyethyl)amino)-2-methyl-propyl)cyclohexyl)-N-methylmethanesulfonamide hydrochloride]
Biological example 1: glucose uptake, activity compared to that of isoproterenol [1]: + + | Emax at 10 µM [2]: < 25%

CC(=O)N(C)[C@H]1CC[C@H](CC(C)(C)NC[C@H](O)c2cncc(F)c2)CC1.Cl [Example 182, N-((1R,4r)-4-(2-(((R)-2-(5-Fluoropyridin-3-yl)-2-hydroxyethyl)amino)-2-methylpropyl)cyclohexyl)-N-methylacetamide]
Biological example 1: glucose uptake, activity compared to that of isoproterenol [1]: + + + | Emax at 10 µM [2]: 25 to 50%

CN([C@H]1CC[C@H](CC(C)(C)NC[C@H](O)c2cncc(F)c2)CC1)S(C)(=O)=O.Cl [Example 183, N-((1R,4r)-4-(2-(((R)-2-(5-Fluoropyridin-3-yl)-2-hydroxyethyl)amino)-2-methylpropyl)cyclohexyl)-N-methylmethanesulfonamide]
Biological example 1: glucose uptake, activity compared to that of isoproterenol [1]: + + + | Emax at 10 µM [2]: < 25%

CC(=O)N(C)[C@H]1CC[C@@H](CC(C)(C)NC[C@H](O)c2cncc(F)c2)CC1.Cl [Example 184, N-((1S,4s)-4-(2-(((R)-2-(5-Fluoropyridin-3-yl)-2-hydroxyethyl)amino)-2-methylpropyl)cyclohexyl)-N-methylacetamide]
Biological example 1: glucose uptake, activity compared to that of isoproterenol [1]: + + + | Emax at 10 µM [2]: < 25%

CN([C@H]1CC[C@@H](CC(C)(C)NC[C@H](O)c2cncc(F)c2)CC1)S(C)(=O)=O.Cl [Example 185, N-((1S,4s)-4-(2-(((R)-2-(5-Fluoropyridin-3-yl)-2-hydroxyethyl)amino)-2-methylpropyl)cyclohexyl)-N-methylmethanesulfonamide]
Biological example 1: glucose uptake, activity compared to that of isoproterenol [1]: + + + | Emax at 10 µM [2]: < 25%

CN(C)S(=O)(=O)[C@H]1CC[C@H](CC(C)(C)NC[C@H](O)c2cccc(F)c2)CC1.Cl [Example 186, (1R,4r)-4-(2-(((R)-2-(3-Fluorophenyl)-2-hydroxyethyl)amino)-2-methyl-propyl)-N,N-dimethylcyclohexane-1-sulfonamide hydrochloride]
Biological example 1: glucose uptake, activity compared to that of isoproterenol [1]: + + + | Biological example 2: intracellular cAMP levels, activity compared to that of isoproterenol [2]: + +

CN(C)S(=O)(=O)[C@H]1CC[C@H](CC(C)(C)NC[C@H](O)c2cncc(F)c2)CC1 [Example 187, (1R,4r)-4-(2-(((R)-2-(5-Fluoropyridin-3-yl)-2-hydroxyethyl)amino)-2-methylpropyl)-N,N-dimethylcyclohexane-1-sulfonamide dihydrochloride]
Biological example 1: glucose uptake, activity compared to that of isoproterenol [1]: + + + | Emax at 10 µM [2]: 25 to 50%

CN(C)S(=O)(=O)[C@H]1CC[C@@H](CC(C)(C)NC[C@H](O)c2cccc(F)c2)CC1.Cl [Example 188, (1S,4s)-4-(2-(((R)-2-(3-fluorophenyl)-2-hydroxyethyl)amino)-2-methyl-propyl)-N,N-dimethylcyclohexane-1-sulfonamide hydrochloride]
Biological example 1: glucose uptake, activity compared to that of isoproterenol [1]: + + + | Emax at 10 µM [2]: 25 to 50%

CN(C)S(=O)(=O)[C@H]1CC[C@@H](CC(C)(C)NC[C@H](O)c2cncc(F)c2)CC1 [Example 189, (1S,4s)-4-(2-(((R)-2-(5-Fluoropyridin-3-yl)-2-hydroxyethyl)amino)-2-methylpropyl)-N,N-dimethylcyclohexane-1-sulfonamide dihydrochloride]
Biological example 1: glucose uptake, activity compared to that of isoproterenol [1]: + + + | Biological example 2: intracellular cAMP levels, activity compared to that of isoproterenol [2]: + +

CNS(=O)(=O)[C@H]1CC[C@H](CC(C)(C)NC[C@H](O)c2cccc(F)c2)CC1 [Example 190, (1R,4r)-4-(2-(((R)-2-(3-Fluorophenyl)-2-hydroxyethyl)amino)-2-methyl-propyl)-N-methylcyclohexane-1-sulfonamide hydrochloride]
Biological example 1: glucose uptake, activity compared to that of isoproterenol [1]: + + + | Emax at 10 µM [2]: 25 to 50%

CNS(=O)(=O)[C@H]1CC[C@H](CC(C)(C)NC[C@H](O)c2cncc(F)c2)CC1 [Example 191, (1R,4r)-4-(2-(((R)-2-(5-Fluoropyridin-3-yl)-2-hydroxyethyl)amino)-2-methylpropyl)-N-methylcyclohexane-1-sulfonamide dihydrochloride]
Biological example 1: glucose uptake, activity compared to that of isoproterenol [1]: + + | Emax at 10 µM [2]: < 25%

CNS(=O)(=O)[C@H]1CC[C@@H](CC(C)(C)NC[C@H](O)c2cccc(F)c2)CC1.Cl [Example 192, (1S,4s)-4-(2-(((R)-2-(3-Fluorophenyl)-2-hydroxyethyl)amino)-2-methyl-propyl)-N-methylcyclohexane-1-sulfonamide hydrochloride]
Biological example 1: glucose uptake, activity compared to that of isoproterenol [1]: + + + | Emax at 10 µM [2]: < 25%

CNS(=O)(=O)[C@H]1CC[C@@H](CC(C)(C)NC[C@H](O)c2cncc(F)c2)CC1 [Example 193, (1S,4s)-4-(2-(((R)-2-(5-Fluoropyridin-3-yl)-2-hydroxyethyl)amino)-2-methylpropyl)-N-methylcyclohexane-1-sulfonamide dihydrochloride]
Biological example 1: glucose uptake, activity compared to that of isoproterenol [1]: + + + | Emax at 10 µM [2]: < 25%

CC(C)(C[C@H]1CC[C@H](S(N)(=O)=O)CC1)NC[C@H](O)c1cccc(F)c1.Cl [Example 194, (1R,4r)-4-(2-(((R)-2-(3-Fluorophenyl)-2-hydroxyethyl)amino)-2-methylpropyl)cyclohexane-1-sulfonamide hydrochloride]
Biological example 1: glucose uptake, activity compared to that of isoproterenol [1]: + + + | Emax at 10 µM [2]: < 25%

CC(C)(C[C@H]1CC[C@H](S(N)(=O)=O)CC1)NC[C@H](O)c1cncc(F)c1 [Example 195, (1R,4r)-4-(2-(((R)-2-(5-Fluoropyridin-3-yl)-2-hydroxyethyl)amino)-2-methylpropyl)cyclohexane-1-sulfonamide dihydrochloride]
Biological example 1: glucose uptake, activity compared to that of isoproterenol [1]: + + + | Emax at 10 µM [2]: < 25%
